Source: patent publication US4009264A, “Complexes of polysaccharides or derivatives thereof with reduced glutathione and process for preparing said complexes” (Meito Sangyo Kabushiki Kaisha, priority 1975, dated 1977)

How the values were obtained:
[1] = literature report; cited from earlier work
[2] = Auto-oxidation of other SH-containing compounds in the presence and absence of the complex (amperometric silver titration); assay type: physicochemical; settings: 37° C.
Procedure: In these Figures, the axis of abscissa represents the incubating time in minutes, and the axis of ordinates, the SH redidual ratio (%) of the above compounds.
The above residual ratio is measured after dissolving the sample in a sodium phosphate buffer (0.1 m, pH 8.0) in the presence of copper sulfate (5 × 10^-^7 m), and incubating at 37° C. The SH content is measured by an amperometric silver titration.

[3] = system: damage of liver induced by D-galactosamine hydrochloride; test: Prophylactic activity on damage of liver induced by D-galactosamine hydrochloride; assay type: in vivo, Wister female rats; settings: administered beforehand; summary of Table 1
Procedure: The damage of liver was induced by administering D-galactosamine hydrochloride.
Wister female rats weighing 100 to 120 g (10 in a group) which had been fasted for 2 hours were used. Three groups were prepared. […] Still another group was administered only with 1 ml. of an isotonic sodium chloride solution. One hour after the administration, a solution obtained by dissolving 50 mg of D-glactosamine hydrochloride in 1 ml. of an isotonic sodium chloride solution and adjusting the pH of the solution to 7.0 with 0.1N sodium hydroxide was administered intraperitoneally.
After a lapse of 22 hours from the administration of D-galactosamine hydrochloride, blood was extracted from the abdominal aorta. GOT, GPT, bilirubin, and glucose in the plasma were measured. Furthermore, the liver was cut out, and its lipid and neutral fat were measured.

[4] = Stability of the thiol group to auto-oxidation: residual ratio of the active SH group (residual activity); assay type: physicochemical; settings: 40° C.
Procedure: The residual ratio of the active SH group, or simply called the residual activity, as used in this application is determined as follows:
The complex of this invention and other SH-containing compounds are incubated at a certain termperature in a sodium phosphate buffer (0.1 M, pH 8.0). Aliquotes are withdrawn at intervals and immediately the active SH group contents of the samples are determined. The maximum content obtained is made 100 (%), and the active SH group content of each of the samples is expressed in percentage based on this maximum content.

complex of dextran and insulin: literature complex of activated dextran and insulin (Acta Chem. Scand. 25, 1855-1859, 1971)
activity relative to the free insulin [1]: 1/36

CC(C)(S)[C@@H](N)C(=O)O [penicillamine]
SH residual ratio of penicillamine alone ([2]; 60 minutes, pH 8.0, copper sulfate 5 × 10^-7 M): about 15%

N[C@@H](CCC(=O)N[C@@H](CS)C(=O)NCC(=O)O)C(=O)O [reduced glutathione]
inhibition of the D-galactosamine-induced increase (GOT, GPT, bilirubin, liver lipid, neutral fat) or decrease (glucose) [3]: inhibited | SH residual ratio of reduced glutathione alone ([2]; 180 minutes, final concentration 1 × 10^-3 M, pH 8.0, copper sulfate 5 × 10^-7 M): about 20% | residual ratio of the active SH group (residual activity of the reduced glutathione) ([4]; after 6 hours, sodium phosphate buffer 0.1 M pH 8.0, FeCl3 1.2 × 10^-5 M): about 40% | residual ratio of the active SH group ([4]; after 8 hours, sodium phosphate buffer 0.1 M pH 8.0): about 20%

NCCS [cysteamine]
SH residual ratio of cysteamine alone ([2]; 60 minutes, sodium phosphate buffer pH 8.0, copper sulfate 5 × 10^-7 M): zero
